Format in all cases: cell-based
One test concerns the target T1, human TLR8 (Homo sapiens, UniProt Q9NR97).
T1 construct: host or cells: HEK-Blue cells
T1 sequence (Q9NR97 27-1041): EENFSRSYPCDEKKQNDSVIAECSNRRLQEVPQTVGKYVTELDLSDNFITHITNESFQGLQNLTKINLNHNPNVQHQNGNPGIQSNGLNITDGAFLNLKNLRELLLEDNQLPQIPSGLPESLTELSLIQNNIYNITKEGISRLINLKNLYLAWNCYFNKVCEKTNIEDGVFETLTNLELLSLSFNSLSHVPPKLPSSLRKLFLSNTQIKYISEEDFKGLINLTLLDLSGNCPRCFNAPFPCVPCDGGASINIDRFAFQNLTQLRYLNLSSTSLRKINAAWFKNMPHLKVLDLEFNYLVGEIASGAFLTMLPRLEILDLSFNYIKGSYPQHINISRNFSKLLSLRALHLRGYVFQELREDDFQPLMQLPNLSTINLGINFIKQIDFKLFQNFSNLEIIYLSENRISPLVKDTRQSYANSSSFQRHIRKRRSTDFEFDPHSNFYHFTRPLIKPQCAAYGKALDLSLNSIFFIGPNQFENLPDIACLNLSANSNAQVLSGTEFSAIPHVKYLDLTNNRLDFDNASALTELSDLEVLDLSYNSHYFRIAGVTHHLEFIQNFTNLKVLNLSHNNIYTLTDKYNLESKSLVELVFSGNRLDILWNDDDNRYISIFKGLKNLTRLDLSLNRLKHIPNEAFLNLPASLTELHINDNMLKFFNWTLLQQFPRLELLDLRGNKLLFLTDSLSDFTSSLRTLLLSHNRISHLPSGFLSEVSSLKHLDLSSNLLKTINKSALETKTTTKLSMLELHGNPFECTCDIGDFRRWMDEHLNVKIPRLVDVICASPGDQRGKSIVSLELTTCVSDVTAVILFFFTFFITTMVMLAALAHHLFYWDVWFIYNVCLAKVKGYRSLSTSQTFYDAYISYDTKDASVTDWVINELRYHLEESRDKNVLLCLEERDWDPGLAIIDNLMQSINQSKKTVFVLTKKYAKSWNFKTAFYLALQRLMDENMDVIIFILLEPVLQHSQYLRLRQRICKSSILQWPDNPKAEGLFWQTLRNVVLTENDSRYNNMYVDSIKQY
The test is described as follows: TLR8 inhibition reporter assay (HEK-Blue, SEAP). Conditions: HEK-Blue cells overexpressing human TLR8, R848 15.9 μM, 22 hour incubation. In short, it runs like this: (§1)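 HEK-Blue cells overexpressing human TLR7, TLR8 or TLR9 carry a SEAP reporter driven by NF-κB/AP-1 sites. Compounds (0.05 nM–50 μM) were preincubated 30 min at room temperature, then cells were stimulated with gardiquimod 7.5 μM (TLR7), R848 15.9 μM (TLR8) or ODN2006 5 nM (TLR9) for 22 h at 37 °C.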

Another test concerns the target T2, human TLR7 (Homo sapiens, UniProt Q9NYK1).
T2 construct: host or cells: HEK-Blue cells
T2 sequence (Q9NYK1 27-1049): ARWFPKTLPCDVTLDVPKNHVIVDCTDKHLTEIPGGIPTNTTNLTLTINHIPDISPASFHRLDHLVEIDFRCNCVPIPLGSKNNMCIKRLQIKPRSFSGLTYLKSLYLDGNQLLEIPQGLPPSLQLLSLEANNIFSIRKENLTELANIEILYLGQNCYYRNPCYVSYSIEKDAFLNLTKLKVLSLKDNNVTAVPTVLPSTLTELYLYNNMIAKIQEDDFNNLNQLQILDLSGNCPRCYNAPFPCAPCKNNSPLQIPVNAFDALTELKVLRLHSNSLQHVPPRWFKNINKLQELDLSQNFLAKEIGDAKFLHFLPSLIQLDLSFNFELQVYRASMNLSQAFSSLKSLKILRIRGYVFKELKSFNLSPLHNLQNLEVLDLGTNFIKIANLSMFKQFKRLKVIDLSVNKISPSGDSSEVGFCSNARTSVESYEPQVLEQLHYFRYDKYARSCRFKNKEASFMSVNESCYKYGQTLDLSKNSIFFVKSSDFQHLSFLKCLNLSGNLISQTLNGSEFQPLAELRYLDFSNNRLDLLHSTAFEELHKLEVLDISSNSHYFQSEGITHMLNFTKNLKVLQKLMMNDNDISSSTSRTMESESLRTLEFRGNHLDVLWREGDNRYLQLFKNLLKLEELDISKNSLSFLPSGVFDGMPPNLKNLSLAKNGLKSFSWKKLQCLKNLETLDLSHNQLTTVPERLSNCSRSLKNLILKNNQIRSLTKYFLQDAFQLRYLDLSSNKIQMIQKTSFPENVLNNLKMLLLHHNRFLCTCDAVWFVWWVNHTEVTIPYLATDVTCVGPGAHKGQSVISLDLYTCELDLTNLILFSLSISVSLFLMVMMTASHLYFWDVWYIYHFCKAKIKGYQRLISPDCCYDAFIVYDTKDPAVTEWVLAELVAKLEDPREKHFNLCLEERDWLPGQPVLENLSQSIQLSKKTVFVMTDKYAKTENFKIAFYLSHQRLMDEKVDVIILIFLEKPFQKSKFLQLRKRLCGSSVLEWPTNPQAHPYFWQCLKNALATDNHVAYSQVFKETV
Kind of test: TLR7 inhibition reporter assay (HEK-Blue, SEAP). To be noted: HEK-Blue cells overexpressing human TLR7, gardiquimod 7.5 μM, 22 hour incubation. The method in brief: as §1
For orientation: Reporter assays use an easily measured gene product as a stand-in for the process of interest.

The target of another test is T3, human TLR9 (Homo sapiens, UniProt Q9NR96).
T3 construct: host or cells: HEK-Blue cells
T3 sequence (Q9NR96 26-1032): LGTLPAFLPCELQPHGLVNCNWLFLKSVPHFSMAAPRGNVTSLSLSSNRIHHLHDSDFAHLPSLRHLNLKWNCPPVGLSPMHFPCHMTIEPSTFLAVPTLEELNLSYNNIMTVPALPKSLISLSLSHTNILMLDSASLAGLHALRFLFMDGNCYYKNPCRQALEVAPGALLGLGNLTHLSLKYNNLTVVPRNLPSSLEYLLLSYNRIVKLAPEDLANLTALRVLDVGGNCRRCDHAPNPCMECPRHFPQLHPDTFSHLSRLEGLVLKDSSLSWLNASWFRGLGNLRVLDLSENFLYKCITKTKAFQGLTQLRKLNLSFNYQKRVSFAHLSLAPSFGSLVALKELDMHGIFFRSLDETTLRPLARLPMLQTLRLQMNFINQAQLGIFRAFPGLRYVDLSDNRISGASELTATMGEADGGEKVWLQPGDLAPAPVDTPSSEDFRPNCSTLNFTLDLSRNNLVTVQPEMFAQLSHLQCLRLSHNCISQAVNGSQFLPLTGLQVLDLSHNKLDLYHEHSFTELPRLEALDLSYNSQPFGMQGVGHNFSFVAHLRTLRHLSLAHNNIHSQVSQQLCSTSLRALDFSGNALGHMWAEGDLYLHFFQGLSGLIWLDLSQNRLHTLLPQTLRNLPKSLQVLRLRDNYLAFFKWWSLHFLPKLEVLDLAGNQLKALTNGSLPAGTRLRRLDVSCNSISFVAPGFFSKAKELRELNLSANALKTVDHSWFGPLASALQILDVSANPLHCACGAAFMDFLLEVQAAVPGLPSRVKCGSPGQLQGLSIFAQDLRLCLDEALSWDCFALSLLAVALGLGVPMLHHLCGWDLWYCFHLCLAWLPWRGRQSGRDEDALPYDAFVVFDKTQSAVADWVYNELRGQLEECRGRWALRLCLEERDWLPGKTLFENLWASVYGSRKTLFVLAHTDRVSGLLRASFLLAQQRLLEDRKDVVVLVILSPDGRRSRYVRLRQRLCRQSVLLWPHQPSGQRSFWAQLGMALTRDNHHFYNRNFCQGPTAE
The test is described as follows: TLR9 inhibition reporter assay (HEK-Blue, SEAP). Conditions: HEK-Blue cells overexpressing human TLR9, ODN2006 5 nM, 22 hour incubation. In short, it runs like this: as §1

The structures appear in SMILES notation.

For orientation: IC50 means the concentration that inhibits the measured activity by half. The low end stands for higher potency, the high end for lower potency. Consider `Cc1ncc(CN2CCC(c3ccc4[nH]c(-c5cn6cnnc6c(C)c5C)c(C(C)C)c4c3)CC2)cn1` [Example 91, 6-(3-isopropyl-5-(1-((2-methylpyrimidin-5-yl)methyl)piperidin-4-yl)-1H-indol-2-yl)-7,8-dimethyl-[1,2,4]triazolo[4,3-a]pyridine], for which the values for the IC50 against human TLR8, against human TLR7 and against human TLR9 were 4.6 nM, 1.5 nM and 1810 nM, respectively.
The like results for `Cc1c(-c2[nH]c3ccc(C4CCN(C5CC(C)OC(C)C5)CC4)cc3c2C(C)C)cn2cnnc2c1C` (stereo not drawn) [Example 92, 6-(5-(1-(2,6-dimethyltetrahydro-2H-pyran-4-yl)piperidin-4-yl)-3-isopropyl-1H-indol-2-yl)-7,8-dimethyl-[1,2,4]triazolo[4,3-a] pyridine] were, in that order, 15.2 nM, 5.6 nM and 3270 nM.
The like results for `Cc1c(-c2[nH]c3ccc(C4CCN(C5CCOC5)CC4)cc3c2C(C)C)cn2cnnc2c1C` (stereo not drawn) [Example 93, 6-(3-isopropyl-5-(1-(tetrahydrofuran-3-yl)piperidin-4-yl)-1H-indol-2-yl)-7,8-dimethyl-[1,2,4]triazolo[4,3-a)pyridine] were, in that order, 4 nM, 1.6 nM and 2800 nM.
The like results for `COc1cc(-c2[nH]c3ccc(C4CCN(C5CCOC5)CC4)cc3c2C(C)C)cn2cnnc12` (stereo not drawn) [Example 94, 6-(3-isopropyl-5-(1-(tetrahydrofuran-3-yl)piperidin-4-yl)-1H-indol-2-yl)-8-methoxy-[1,2,4]triazolo[4,3-a]pyridine] were, in that order, 11.9 nM, 0.6 nM and 914 nM.
As to `COc1cc(-c2[nH]c3ccc(C4CCN(C5CCC(F)(F)CC5)CC4)cc3c2C(C)C)cn2cnnc12` [Example 95, 6-(5-(1-(4,4-difluorocyclohexyl)piperidin-4-yl)-3-isopropyl-1H-indol-2-yl)-8-methoxy-[1,2,4] triazolo[4,3-a]pyridine], the IC50 against human TLR8 turned out to be 20.5 nM; against human TLR7, 0.7 nM; on human TLR9, 2080 nM.
Taken in the same sequence, the figures for `COc1cc(-c2[nH]c3ccc(C4CCN(C)CC4)cc3c2C(C)C)cn2cnnc12` [Example 96, 6-(3-isopropyl-5-(1-methylpiperidin-4-yl)-1H-indol-2-yl)-8-methoxy-[1,2,4]triazolo[4,3-a)pyridine] were 35.8 nM, 1.2 nM and 376 nM.
Taken in the same sequence, the figures for `COc1cc(-c2[nH]c3ccc(C4CCN(C(C)C)CC4)cc3c2C(C)C)cn2cnnc12` [Example 97, 6-(3-isopropyl-5-(1-isopropylpiperidin-4-yl)-1H-indol-2-yl)-8-methoxy-[1,2,4]triazolo[4,3-a]pyridine] were 56.1 nM, 2.3 nM and 768 nM.
The like results for `Cc1c(-c2[nH]c3ccc(C4CCN(C)CC4)cc3c2C(C)C)cn2cnnc2c1C` [Example 98, 6-(3-isopropyl-5-(1-methylpiperidin-4-yl)-1H-indol-2-yl)-7,8-dimethyl-[1,2,4]triazolo[4,3-a]pyridine] were, in that order, 12.1 nM, 1 nM and 1790 nM.
With `Cc1c(-c2[nH]c3ccc(C4CCN(C(C)C)CC4)cc3c2C(C)C)cn2cnnc2c1C` [Example 99, 6-(3-isopropyl-5-(1-isopropylpiperidin-4-yl)-1H-indol-2-yl)-7,8-dimethyl-[1,2,4]triazolo [4,3-a]pyridine], the IC50 on human TLR8 worked out at 8.3 nM; against human TLR7, 1.7 nM; on human TLR9, 2220 nM.
Taken in the same sequence, the figures for `Cc1c(-c2[nH]c3ccc(C4CCN(C5CC(C)(C)OC(C)(C)C5)CC4)cc3c2C(C)C)cn2cnnc2c1C` [Example 100, 6-(3-isopropyl-5-(1-(2,2,6,6-tetramethyltetrahydro-2H-pyran-4-yl)piperidin-4-yl)-1H-indol-2-yl)-7,8-dimethyl-[1,2,4]triazolo[4,3-a]pyridine] were 31.6 nM, 13.7 nM and 4440 nM.
For the molecule `Cc1c(-c2[nH]c3ccc(C4CCN(C5CCC(F)(F)CC5)CC4)cc3c2C(C)C)cn2cnnc2c1C` [Example 101, 6-(5-(1-(4,4-difluorocyclohexyl)piperidin-4-yl)-3-isopropyl-1H-indol-2-yl)-7,8-dimethyl-[1,2,4] triazolo[4,3-a]pyridine], the IC50 against human TLR8 came to 12.4 nM; against human TLR7 it was 12.3 nM; on human TLR9, 1440 nM.
The like results for `Cc1cc(-c2[nH]c3ccc(C4CCN(C(=O)CN(C)C)CC4)cc3c2C(C)C)cn2cnnc12` [Example 104, 2-(dimethylamino)-1-(4-(3-isopropyl-2-(8-methyl-[1,2,4]triazolo[4,3-a]pyridin-6-yl)-1H-indol-5-yl)piperidin-1-yl)ethanone] were, in that order, 14.6 nM, 2.5 nM and 917 nM.

The values are drawn from patent US11130756B2, “[1,2,4]Triazolo[4,3-A]pyridinyl substituted indole compounds” (BRISTOL-MYERS SQUIBB COMPANY, priority 2017, dated 2021).
